Results from patent publication US20100197610A1, “FRUCTOSE 1, 6 BISPHOSPHATE - A NOVEL ANTICONVULSANT DRUG” (Baylor College of Medicine, priority 2007, published 2010).

How the values were obtained:
[1] = system: pilocarpine-induced seizures; assay: Pilocarpine model of acute seizures; type: in vivo, Sprague Dawley rats
Procedure: (§1) All animal experiments were carried out in accordance with the National Institutes of Health guide for the care and use of laboratory animals (NIH publication 8023, revised 1996) and with the approval of the local Animal Use Committee. Unless indicated, all chemicals were obtained from Sigma Chemical Co (St. Louis Mo.). Male, Sprague Dawley rats weighing 50-74 g (young) or 147-309 g (adult) were used in this study. Acute seizures were induced by kainic acid (KA; Ocean Produce Int., Canada), pilocarpine or pentylenetetrazole (PTZ) as previously described (Lian et al 2006). These models were chosen because they initiate seizures by different mechanisms and the seizures have a relatively gradual onset compared to seizures initiated by stimulation. There was no difference in the body weight of the animals receiving the different convulsants. For pilocarpine, kainic acid and PTZ, the mean weights were 219±5 g (range 163-275 g), 215±7 g (range 183-258 g), and 216±13 g (range 147-309 g), respectively. The animals in the drug treatment groups were not different in weight from the animals in the control groups.
(§2) After administration of KA (10 mg/kg, ip), pilocarpine (scopolamine methyl bromide 1 mg/kg, s.c followed 15 min later by 300 mg/kg, ip pilocarpine) or PTZ (50 mg/kg, ip) (Lian et al., 2006), animals were continuously monitored for seizure activity for at least 5 h after KA or pilocarpine and for 30 min after PTZ. Behavioral seizures were scored by an investigator blinded to the treatment. Latency to the first wet dog shake after KA, latency to the first forelimb clonus (after pilocarpine, kainic acid or PTZ) and the score and duration of seizures were measured. When at least 1 hour had passed without any head bobbing (for pilocarpine) or any wet dog shakes (for KA), seizures were considered over. Status epilepticus lasting longer than 4 hours (for KA) or 5 hours (for pilocarpine) were assigned 4 and 5 hours for seizure duration. For animals receiving PTZ, the seizure duration was defined as the period of tonic-clonic seizures. EEG recording in the hippocampus was conducted as previously described (Lian et al., 2004). After anesthesia, a recording electrode was placed in a burr hole centered at 3.0 mm posterior to bregma, 1.8 mm lateral to the midline and then lowered 3.0 mm. A ground screw and wire was placed over the frontal region in another burr hole. This assembly was fixed to the skull with dental cement.
(§3) Each animal was assigned the score of the most severe seizure observed. The behavioral seizures induced by KA or pilocarpine were scored according to an adjusted version of the scale of Racine (Bough et al., 2002): stage 1, wet dog shakes after KA or trembling after pilocarpine; stage 2, head bobbing and stereotypes; stage 3, unilateral forelimb clonus; stage 4, bilateral forelimb clonus; stage 5, rearing and falling; stage 6, jumping and/or running followed by falling. Death within 24 h was assigned stage 7.
(§4) Adult rats received either D-F1,6BP, sodium valproate (VPA, 0.3 g/kg), 2-DG (0.25, 0.5 g/kg) or normal saline (vehicle) intraperitoneally followed 1 h later by one of the convulsants. The dose for VPA was based on experimental evidence that doses from 0.1 to 0.4 g/kg (ip) are effective in animal models (Bough and Eagles, 2001; Manent et al., 2007). Three doses of F1,6BP (0.25, 0.5 and 1 g/kg) were tested with this dosing schedule. Two additional groups were administered F1,6BP (0.5 or 1 g/kg, n=5) after pilocarpine. In this experiment, the F1,6BP was given intraperitoneally at the first behavioral seizure, which was chewing movements of the jaw. Two additional sets of animals were fed the classic ketogenic diet (No. F3666; Bio-Serv, Frenchtown, N.J.). One set of animals was given the diet beginning on postnatal day 22-26 (KD-Yng) and maintained on this diet for 4 weeks. Thus the seizures were tested in this group when the animals had reached approximately the same age (50-54 days) as the majority of the animals tested. […]

[2] = system: kainic acid-induced seizures; assay: Kainic acid model of acute seizures; type: in vivo, Sprague Dawley rats
Procedure: as §1, §2, §3, §4

[3] = system: PTZ-induced generalized tonic-clonic seizures; assay: PTZ model of acute seizures; type: in vivo, Sprague Dawley rats
Procedure: as §1, §2
Adult rats received either D-F1,6BP, sodium valproate (VPA, 0.3 g/kg), 2-DG (0.25, 0.5 g/kg) or normal saline (vehicle) intraperitoneally followed 1 h later by one of the convulsants. The dose for VPA was based on experimental evidence that doses from 0.1 to 0.4 g/kg (ip) are effective in animal models (Bough and Eagles, 2001; Manent et al., 2007). Three doses of F1,6BP (0.25, 0.5 and 1 g/kg) were tested with this dosing schedule. Two additional groups were administered F1,6BP (0.5 or 1 g/kg, n=5) after pilocarpine. In this experiment, the F1,6BP was given intraperitoneally at the first behavioral seizure, which was chewing movements of the jaw. Two additional sets of animals were fed the classic ketogenic diet (No. F3666; Bio-Serv, Frenchtown, N.J.). One set of animals was given the diet beginning on postnatal day 22-26 (KD-Yng) and maintained on this diet for 4 weeks. Thus the seizures were tested in this group when the animals had reached approximately the same age (50-54 days) as the majority of the animals tested.
The latency to seizure onset, seizure score and seizure duration were averaged across animals in each group. Comparisons between groups were done with an analysis of variance with Bonferroni post hoc test. Statistical difference was defined as p<0.05.

memory consolidation = details: subcutaneous 0.3 μmol, chick (Gibbs and Summers, 2002); cited from earlier work
[4] = 2-DG 0.25 and 0.5 g/kg, n=5 each
[5] = VPA 0.3 g/kg ip pretreatment, n=9

SMILES: O=CC[C@@H](O)[C@H](O)[C@H](O)CO [2-DG, 2-deoxyglucose, reference compound]
- animals with a stage 3 seizure ([1]; 2-DG 0.25 g/kg, n=6): only one animal
- seizure duration ([1]; pretreatment with 2-DG): decreasing
- seizure score ([1]; pretreatment with 2-DG): decreasing
- appearance of the first wet dog shake ([2]; 2-DG 0.25 g/kg, n=6): delayed
- effect on the other seizure parameters ([2]; 2-DG 0.25 g/kg, n=6): no effect
- anticonvulsant activity ([2]; 2-DG 0.5 g/kg, n=3): no additional activity
- animals that had seizures [3, 4]: All animals
- seizure latency [3, 4]: not increased
- seizure duration ([3]; 2-DG 0.25 g/kg): significantly shortened
- effect on memory consolidation (memory consolidation): inhibit memory consolidation

SMILES: CCCC(CCC)C(=O)[O-].[Na+] [VPA, sodium valproate, reference compound]
- animals with forelimb clonus ([1]; VPA 0.3 g/kg ip pretreatment): 6 out of 9
- animals that died [1, 5]: one died
- mean seizure score [1, 5]: significantly reduced
- seizure duration [1, 5]: significantly reduced
- appearance of forelimb clonus ([2]; VPA 0.3 g/kg ip, n=6): but not the appearance of forelimb clonus
- appearance of wet dog shakes ([2]; VPA 0.3 g/kg ip, n=6): significantly delayed
- duration of seizures ([2]; VPA 0.3 g/kg ip, n=6): decreased
- seizure score ([2]; VPA 0.3 g/kg ip, n=6): 4.5±0.2
- seizure duration ([3]; VPA 0.3 g/kg): 9 ± 4 s
- animals with no generalized tonic-clonic seizures ([3]; VPA 0.3 g/kg, n=8): two animals
- seizure latency ([3]; VPA 0.3 g/kg, the six animals with seizures): 185 ± 27 s
